Patent US20210128547A1, “AGGRESSIVE LIPID LOWERING THERAPY IN CORONARY ARTERY DISEASE” (priority 2018, published 2021)

Columns and labels:
[1] = test system: patients with stable CAD; test: Randomized open-label blinded-endpoint phase 4 trial, pitavastatin 4 mg/day vs 1 mg/day (Example 1); format: in vivo, human (Japanese patients)
Method: This study was a prospective, multicenter, randomized, open-label, blinded-endpoint, physician-initiated phase 4 trial designed to investigate whether high-dose statin therapy could reduce CV events in patients with stable CAD as compared with low-dose statin therapy. We hypothesized that aggressive lipid lowering treatment with pitavastatin 4 mg/day would reduce the incidence of the composite endpoint comprised of CV death, non-fatal myocardial infarction (MI), non-fatal ischemic stroke, and unstable angina requiring emergency hospitalization. The control group received pitavastatin 1 mg/day.
Men and women aged 20 to 80 years with clinically evident stable CAD and elevated LDL-C were eligible for this study. CAD was defined as 1) previous ACS, such as acute myocardial infarction or unstable angina; 2) a previous coronary revascularization procedure (PCI or coronary artery bypass grafting (“CABG”)); or 3) atherosclerotic CAD detected by coronary artery angiography with at least 75% stenosis in major epicardial coronary arteries (American Heart Association classification). (30) Patients with elevated LDL-C at entry were defined as (1) patients not receiving chronic lipid-lowering therapy with LDL-C≥140 mg/dL, (2) patients with LDL-C≥100 mg/dL and considered by the attending physician to need lipid-lowering therapy, or (3) patients being treated with lipid-lowering therapy.
Exclusion criteria included (1) any planned coronary revascularization procedure, (2) active malignancy, (3) contraindication for pitavastatin (hypersensitivity to pitavastatin, severe liver disease or hepatic dysfunction, concurrent cyclosporine use, or suspected or confirmed pregnancy or current breastfeeding), (4) severe congestive heart failure (ejection fraction <30% or NYHA class ≥3), (5) current hemodialysis, (6) familial hypercholesterolemia, (7) current participation in another clinical trial, (8) current use of any prohibited drug (lipid-lowering drug other than pitavastatin) that could not be discontinued during the study, and (9) any other finding that would make the patient unsuitable for this study in the opinion of the investigators.
Participants were recruited at 733 hospitals in Japan. During screening visits, informed consent and baseline medical history were obtained, and a clinical examination and laboratory testing were performed. Blood samples were collected to determine fasting lipid levels and the patient's standard clinical profile. After discontinuation of all previous lipid-lowering therapies, all eligible patients started receiving treatment with pitavastatin 1 mg/day on an open-label basis for at least 1 month (run-in period). At the end of the run-in period (week 0), those patients with LDL-C levels below 120 mg/dL, measured by a central laboratory using Friedwald's formula, were eligible for randomization. Patients with prior ACS or coronary revascularization could be randomized beyond 3 months after the index event. Randomization was not allowed for patients with poor adherence (less than 50%) for the study drug during the run-in period or for patients with the primary endpoint events during the run-in period.
Patients were randomized in a 1:1 ratio to either pitavastatin 4 mg or pitavastatin 1 mg once daily. Randomized treatment assignment was stratified by 5 factors: 1) institution, 2) prior statin use, 3) age (<65 or ≤65), 4) diabetes, and 5) sex. Patients were to be followed for 3 years, and study visits were scheduled at 6 months for the first visit and every year thereafter. At each visit, information on vital signs, clinical endpoints, adverse events, and concurrent medication was collected. In addition, physical examinations and electrocardiograms were performed and blood specimens were collected at 6 months and every 12 months thereafter for lipid and other laboratory tests. […]

[2] = 4 mg of pitavastatin; cited from earlier work

## O=C(O)C[C@H](O)C[C@H](O)/C=C/c1c(C2CC2)nc2ccccc2c1-c1ccc(F)cc1 [pitavastatin]
[1]; 1 mg and 4 mg pitavastatin groups, FIG. 8
  incidence rates of individual CV events: death from any cause, myocardial infarction, and coronary revascularization: positive
[1]; patients converted from 1 mg dose to 4 mg dose of pitavastatin, FIG. 2
  LDL-C: statistically significant reduction
[1]; patients converted from 1 mg dose to 4 mg dose of pitavastatin, FIG. 3
  HDL-C: numerically superior increase
[1]; patients converted from 1 mg dose to 4 mg dose of pitavastatin, FIG. 4
  TG: statistically significant reduction
[1]; patients converted from 1 mg dose to 4 mg dose of pitavastatin, FIG. 5
  hs-CGP: statistically significant reduction
[1]; patients converted from 1 mg dose to 4 mg dose of pitavastatin, FIG. 6
  primary clinical endpoint (composite of CV death, MI, ischemic stroke and UA): statistically significant reduction
[1]; patients converted from 1 mg dose to 4 mg dose of pitavastatin, FIG. 7
  secondary clinical endpoint (primary endpoint+coronary revascularization): statistically significant reduction
[1]; subgroup analysis, 1 mg vs 4 mg pitavastatin, FIG. 9
  effect of LDL-C status (≥95 mg/dL or <95 mg/dL) on incidence rates for the primary endpoint: did not affect the results
[2]
  reduction of LDL-C from baseline: 42.9%
